Test results as given in patent US20200095296A1, “USE OF PEPTIDES AS BIOMARKERS IN THE DIAGNOSIS, CONFIRMATION AND TREATMENT OF A NEUROLOGICAL DISORDER AND TCR AND/OR HLA IMMUNOPROFILING IN NEURODEGENERATIVE DISEASE” (THE TRUSTEES OF COLUMBIA UNIVERSITY IN THE CITY OF NEW YORK, priority 2017, published 2020).
Where no end group is shown, it is not given here. [ ]: non-standard residue; d: D form. pT = C[C@@H](OP(=O)(O)O)[C@H](N)C(=O)O; pS = N[C@@H](COP(=O)(O)O)C(=O)O

Test system: PBMC
Assay: IFNg/IL-5 dual ELISPOT after 14 day in vitro stimulation of PBMC with Tau peptides
Type: cell-based, human
Conditions: for PD % of Total Responders / PD Total SFC / PD Total Responders: PD donors; for % of total response / Average SFC per responder / Frequency of response / Total SFC per epitope: across all cohorts; for Total Responders / Total SFC: all three cohorts (PD, HC > 50, HC < 35); for HC < 35 Total Responders / HC < 35 Total SFC: healthy controls < 35 years old
Source text: It was investigated whether T cell responses against Tau were detectable in the PD and healthy control (HC) donors. To this end, a panel of overlapping peptides spanning through the entire sequence of the Tau protein was synthesized. Since it is known that the Tau protein is post-translationally modified (mainly by phosphorylation), in several instances phosphorylated peptides were also synthesized. In all, 55 non-modified 16-mers overlapping by 8 and 14 modified 16-mers were synthesized.
PD: n=16, peptides tested 14-16 times; HC above 50 years old denominated as age-matched: n=11 (9-11 times) and HC below 35 years old (HC Young): n=13 (10-13 times).
These peptides were tested utilizing the following assay strategy. Briefly, PBMC from each donor were stimulated in vitro for 14 days as described (Hinz, D., 2015) with pools of 10 to 16 peptides each. After 14 days, the T cell cultures were assayed with IFNg/IL-5 dual ELISPOT assays […]. Positive pools were deconvoluted at day 17 to identify the specific individual epitopes recognized.

[1] = healthy controls > 50 years old

| Sequence | PD/HC > 50 Ratio of % Responders | PD/HC > 50 Ratio of Response | HC > 50 % of Total Responders [%] | HC > 50 Total SFC (HC > 50, dominant epitopes) [SFC] | PD % of Total Responders [%] | PD Total SFC (dominant epitopes) [SFC] | % of total response [%] | Average SFC per responder [SFC] | Frequency of response | Total SFC per epitope [SFC] | PD Total Responders | PD Total SFC [SFC] | Total Responders | Total SFC [SFC] | HC < 35 Total Responders | HC < 35 Total SFC [SFC] | HC > 50 Total Responders [1] | HC > 50 Total SFC [1] [SFC] |
| --- | --- | --- | --- | --- | --- | --- | --- | --- | --- | --- | --- | --- | --- | --- | --- | --- | --- | --- |
| KKIETHKLTFRENAKA (listed as Homo sapiens) [Tau 16-mer, start 369] | 1.4 | 1.4 | 31.3 | 5898 | 43.8 | 8190 | 5.4 | 1174 | 30.2 | 18790 | – | – | – | – | – | – | – | – |
| KTDHGAEIVYKSPVVS (listed as Homo sapiens) [Tau 16-mer, start 385] | 7.0 | 5.5 | 8.3 | 2437 | 58.3 | 13336 | 5.7 | 1679 | 22.6 | 20142 | – | – | – | – | – | – | – | – |
| KVAVVRTPPKSPSSAK (KVAVVR[pT]PPKSPSSAK; listed as Homo sapiens) | inf | inf | 0.0 | 0 | 100.0 | 4556 | 1.3 | 911 | 9.4 | 4556 | 5 | 4556 | 5 | 4556 | 0 | 0 | 0 | 0 |
| KVAVVRXPPKSPSSAK | 4.0 | 3.2 | 13.0 | 6987 | 52.2 | 22410 | 13.2 | 12014 | 43.4 | 46324 | 12 | 22410 | 23 | 46324 | 8 | 16927 | 3 | 6987 |
| LATLADEVSASLAKQG (listed as Homo sapiens) [Tau 16-mer, start 425] | 0.3 | 0.5 | 75.0 | 2530 | 25.0 | 1263 | 1.1 | 948 | 7.5 | 3793 | – | – | – | – | – | – | – | – |
| PAPKTPPSSGEPPKSG (PAPK[pT]PPSSGEPPKSG; listed as Homo sapiens) | – | – | – | – | – | – | – | – | – | – | 0 | 0 | 1 | 107 | 0 | 0 | 1 | 107 |
| PAPKXPPSSGEPPKSG (PAPK[pT]PPSSGEPPKSG) | 1.8 | 2.4 | 19.2 | 6207 | 34.6 | 14672 | 12.2 | 1639 | 49.1 | 42624 | 9 | 14672 | 26 | 42624 | 12 | 21745 | 5 | 6207 |
| PMPDLKNVKSKIGSTE (PMPDLKNVKSKIG[pS]TE; listed as Homo sapiens) [Tau 16-mer, start 249] | 1.7 | 2.2 | 30.0 | 6084 | 50.0 | 13363 | 5.7 | 1982 | 18.9 | 19815 | 5 | 13363 | 10 | 19815 | 2 | 368 | 3 | 6084 |
| PMPDLKNVKSKIGZTE | 1.3 | 1 | 36.4 | 5168 | 45.5 | 5175 | 3.2 | 1006 | 20.8 | 11063 | 5 | 5175 | 11 | 11063 | 2 | 720 | 4 | 5168 |
| SLEDEAAGHVTQARMV (listed as Homo sapiens) [Tau 16-mer, start 113] | 2.0 | 11 | 33.3 | 640 | 66.7 | 7058 | 2.2 | 1283 | 11.3 | 7698 | – | – | – | – | – | – | – | – |
| SNVSSTGSIDMVDSPQ (listed as Homo sapiens) [Tau 16-mer, start 409] | – | – | – | – | – | – | – | – | – | – | 2 | 710 | 3 | 1767 | 0 | 0 | 1 | 1057 |
| SNVSSTGSIDMVDZPQ | – | – | – | – | – | – | – | – | – | – | 4 | 1484 | 4 | 1484 | 0 | 0 | 0 | 0 |
| SVQIVYKPVDLSKVTS (listed as Homo sapiens) | 0.9 | 1.1 | 42.1 | 5460 | 36.8 | 6203 | 4.0 | 731 | 35.8 | 13888 | – | – | – | – | – | – | – | – |
| TPPTREPKKVAVVRTP (listed as Homo sapiens) | – | – | – | – | – | – | – | – | – | – | 1 | 1707 | 1 | 1707 | 0 | 0 | 0 | 0 |
